Reference: patent US11299485B2, “Thiophene derivative and use thereof” (FUJIMOTO CO., LTD., priority 2018, dated 2022)

How the values were obtained:
Format in all cases: cell-based
TNF-α production = assay: Human TNF-α production suppression test (LPS-stimulated peripheral blood mononuclear cells, ELISA); conditions: PBMC, compound 10 μg/mL, 24 hr, control well = 100, read-out: TNF-α production suppressive rate (%)
Procedure: Example 50: Human TNF-α Production Suppression Test
Peripheral blood of a healthy adult was collected in a vacuum blood collection tube (Terumo, containing EDTA/2Na), and then diluted two-fold with an equal volume of OTSUKA NORMAL SALINE (Otsuka Pharmaceutical Co., Ltd.). The diluted blood was mixed with Lymphoprep (AXIS-SHIELD) in half the volume of the diluted blood, dispensed into a 15 mL conical tube, and centrifuged at room temperature for 20 min (2,100 rpm). The mononuclear cells accumulated at the interface between Lymphoprep and plasma was transferred to a 50 mL conical tube, diluted with OTSUKA NORMAL SALINE, and the mononuclear cells suspension was centrifuged at room temperature for 10 min (1,150 rpm) and then the supernatant was removed. The mononuclear cells fraction obtained as a precipitate was suspended in an appropriate amount of 10% fetal calf serum (Thermo Fisher Scientific)-containing RPMI1640 medium (Thermo Fisher Scientific, hereinafter abbreviated as medium A), and diluted as appropriate with 0.4% trypan blue solution (Sigma-Aldrich Co. LLC.). The number of viable cells was counted with a hemocytometer (ERMA INC.). It was diluted with medium A such that the value obtained was 5×10^5 cells/mL. On the other hand, 75 μL of medium A, 5 μL of 0.4 mg/mL test compound solution (DMSO solution 10-fold diluted with medium A), and 20 μL of 10 μg/mL lipopolysaccharide (Sigma-Aldrich Co. LLC.) solution (diluted with medium A) were each added in advance to the same well of a Falcon 96-well flat bottom plate (Corning Incorporated), and the above-mentioned cell suspension was dispensed at 0.1 mL/well. 5 μL of DMSO diluted 10-fold with medium A was added to the control well instead of the compound solution. After culturing at 37° C. in a 5% CO2 stream for 24 hr, the culture solution was centrifuged at 4° C., 1,000 rpm for 3 min and the supernatant was recovered. The content of TNF-α in the supernatant was measured using an ELISA kit (Peprotech) according to a conventional method. The amount of TNF-α produced in the well containing the test compound was determined with the amount of TNF-α produced in the control well as 100, and the suppression rate was calculated for each test.

REC-1 cells = assay: Human mantle cell lymphoma cell line REC-1 proliferation suppression test; conditions: Rec1, 72 h, compound 10 μM, 3 days, WST-8, read-out: cell survival rate (% of control) REC-1
Procedure: Example 53: Human Mantle Cell Lymphoma Cell Line REC-1 Proliferation Suppression Test
REC-1 cells (ATCC, CRL-3004) were suspended in medium B, and diluted as appropriate with 0.4% trypan blue solution (Sigma-Aldrich Co. LLC.). The number of viable cells was counted with a hemocytometer (Funakoshi Co., Ltd.). A cell suspension obtained by diluting with medium B such that the value obtained was 1.3×10^5 cells/mL was dispensed into a Falcon 96 well flat bottom plate (Corning Incorporated) at 75 μL/well, and culture was started at 37° C. under 5% CO2 stream. The next day, a solution obtained by diluting 4 mM DMSO solution of the test compound 100-fold with medium B was added by 25 μL to each well (final concentration of test compound 10 μM). 25 μL of a solution obtained by diluting DMSO 100-fold with medium B was added to the control well. After culturing at 37° C. in a 5% CO2 stream for 3 days, the cell proliferation activity was measured according to the instruction manual attached to WST-8 Kit (KISHIDA CHEMICAL Co., Ltd.).

Kasumi-7 cells = assay: Human acute lymphoblastic leukemia cell line Kasumi-7 proliferation suppression test; conditions: 72 h, compound 10 μM, 3 days, WST-8, read-out: cell survival rate (% of control) Kasumi-7
Excerpt: Example 55: Human Acute Lymphoblastic Leukemia Cell Line Kasumi-7 Proliferation Suppression Test
Kasumi-7 cells (NIBIOHN, JCRB1401) were suspended in 20% fetal calf serum (Thermo Fisher Scientific, Inc.)-containing RPMI1640 medium (ATCC, hereinafter abbreviated as medium C), and diluted as appropriate with 0.4% trypan blue solution (Sigma-Aldrich Co. LLC.). The number of viable cells was counted with a hemocytometer (Funakoshi Co., Ltd.). A cell suspension obtained by diluting with medium C such that the value obtained was 1.3×10^5 cells/mL was dispensed into a Falcon 96 well flat bottom plate (Corning Incorporated) at 75 μL/well, and culture was started at 37° C. under 5% CO2 stream. The next day, a solution obtained by diluting 4 mM DMSO solution of the test compound 100-fold with medium C was added by 25 μL to each well (final concentration of test compound 10 μM). 25 μL of a solution obtained by diluting DMSO 100-fold with medium C was added to the control well. After culturing at 37° C. in a 5% CO2 stream for 3 days, the cell proliferation activity was measured according to the instruction manual attached to WST-8 Kit (KISHIDA CHEMICAL Co., Ltd.).

[1] = tested on: human peripheral blood mononuclear cells (PBMC); assay: Cytotoxicity test using human peripheral blood mononuclear cells (PBMC); conditions: compound 10 μg/mL, LPS, 24 hr, WST-1 or WST-8
Procedure: Example 56: Cytotoxicity Test Using Human Peripheral Blood Mononuclear Cells (PBMC)
Peripheral blood of a healthy adult was collected in a Venoject II vacuum blood collection tube (Terumo, containing EDTA/2Na), and then diluted two-fold with an equal volume of OTSUKA NORMAL SALINE (Otsuka Pharmaceutical Co., Ltd.). The diluted blood was mixed with Lymphoprep (AXIS-SHIELD) in half the volume of the diluted blood, dispensed into a 15 mL conical tube, and centrifuged at room temperature for 20 min (2,100 rpm). The mononuclear cells accumulated at the interface between Lymphoprep and plasma was transferred to a 50 mL conical tube, diluted with OTSUKA NORMAL SALINE, and the mononuclear cells suspension was centrifuged at room temperature for 10 min (1,150 rpm) and then the supernatant was removed. The mononuclear cells fraction obtained as a precipitate was suspended in an appropriate amount of medium A, and diluted as appropriate with 0.4% trypan blue solution (Sigma-Aldrich Co. LLC.). The number of viable cells was counted with a hemocytometer (ERMA INC.). It was diluted with medium A such that the value obtained was 5×10^5 cells/mL. On the other hand, 37.5 μL of medium A, 2.5 μL of 0.4 mg/mL test compound solution (DMSO solution 10-fold diluted with medium A), and 10 μL of 10 μg/mL lipopolysaccharide (Sigma-Aldrich Co. LLC.) solution (diluted with medium A) were each added in advance to the same well of a Falcon 96-well flat bottom plate (Corning Incorporated), and the above-mentioned cell suspension was dispensed at 50 μL/well (final concentration of test compound 10 μg/mL). 2.5 μL of DMSO diluted 10-fold with medium A was added to the control well instead of the compound solution. After culturing at 37° C. in a 5% CO2 stream for 24 hr, the cell survival rate was measured using WST-1 (DOJINDO LABORATORIES) or WST-8 kit (KISHIDA CHEMICAL Co., Ltd.) and according to each instruction manual attached thereto.

Structure (SMILES)	inhibition at 10 µg/mL (TNF-α production)	viability at 10 µM (REC-1 cells)	viability at 10 µM (Kasumi-7 cells)	cell survival rate (% of control) PBMC [1]
C[C@@H]1CN(Cc2ccc(COc3cscc3-c3cn(C4CCC(=O)NC4=O)nn3)cc2)C[C@H](C)O1 (stereo partly drawn) [compound 38, 3-{4-[4-(4-{[(2S,6R)-2,6-dimethylmorpholino]methyl}benzyloxy)thiophen-3-yl]-1H-1,2,3-triazol-1-yl}piperidine-2,6-dione]	89%	5%	23%	110 % of control
Cc1ccc(-c2cn(C3CCC(=O)NC3=O)nn2)s1 (stereo not drawn) [compound 5, 3-[4-(5-methylthiophen-2-yl)-1H-1,2,3-triazol-1-yl]piperidine-2,6-dione]	71%	53%	72%	97 % of control
O=C1CCC(n2nnc(-c3ccsc3)c2Cl)C(=O)N1 (stereo not drawn) [compound 4, 3-[5-chloro-4-(thiophen-3-yl)-1H-1,2,3-triazol-1-yl]piperidine-2,6-dione]	67%	93%	91%	112 % of control
O=C1CCC(n2cc(-c3cscc3OCC3CC3)nn2)C(=O)N1 (stereo not drawn) [compound 28, 3-{4-[4-(cyclopropylmethoxy)thiophen-3-yl]-1H-1,2,3-triazol-1-yl}piperidine-2,6-dione]	37%	58%	75%	89 % of control
Cl.O=C1CCC(n2cc(-c3cscc3OCc3ccc(CCN4CCOCC4)cc3)nn2)C(=O)N1 (stereo not drawn) [compound 45, 3-(4-{4-[4-(2-morpholinoethyl)benzyloxy]thiophen-3-yl}-1H-1,2,3-triazol-1-yl)piperidine-2,6-dione hydrochloride]	76%	26%	39%	110 % of control
Cl.O=C1CCC(n2cc(-c3cscc3OCc3ccc(CN4CCCCC4)cc3)nn2)C(=O)N1 (stereo not drawn) [compound 42, 3-(4-{4-[4-(piperidin-1-ylmethyl)benzyloxy]thiophen-3-yl}-1H-1,2,3-triazol-1-yl)piperidine-2,6-dione hydrochloride]	96%	13%	26%	103 % of control
O=C1CCC(n2cc(-c3cscc3OCc3ccccc3)nn2)C(=O)N1 (stereo not drawn) [compound 32, 3-{4-[4-(benzyloxy)thiophen-3-yl]-1H-1,2,3-triazol-1-yl}piperidine-2,6-dione]	100%	15%	36%	66 % of control
O=C1CCC(n2cc(-c3cscc3OCc3ccccn3)nn2)C(=O)N1 (stereo not drawn) [compound 34, 3-{4-[4-(pyridin-2-ylmethoxy)thiophen-3-yl]-1H-1,2,3-triazol-1-yl}piperidine-2,6-dione]	97%	33%	45%	95 % of control
O=C1CCC(n2cc(-c3cscc3OCc3ccccc3CN3CCOCC3)nn2)C(=O)N1 (stereo not drawn) [compound 40, 3-(4-{4-[2-(morpholinomethyl)benzyloxy]thiophen-3-yl}-1H-1,2,3-triazol-1-yl)piperidine-2,6-dione]	86%	33%	41%	96 % of control
COC(=O)c1scc(-c2cn(C3CCC(=O)NC3=O)nn2)c1OC (stereo not drawn) [compound 16, methyl 4-[1-(2,6-dioxopiperidin-3-yl)-1H-1,2,3-triazol-4-yl]-3-methoxythiophene-2-carboxylate]	100%	85%	90%	90 % of control
CC(Oc1cscc1-c1cn(C2CCC(=O)NC2=O)nn1)c1ccccc1 (stereo not drawn) [compound 44, 3-{4-[4-(1-phenylethoxy)thiophen-3-yl]-1H-1,2,3-triazol-1-yl}piperidine-2,6-dione]	79%	30%	40%	105 % of control
O=C1CCC(n2cc(-c3cscc3Cl)nn2)C(=O)N1 (stereo not drawn) [compound 14, 3-[4-(4-chlorothiophen-3-yl)-1H-1,2,3-triazol-1-yl]piperidine-2,6-dione]	75%	34%	64%	113 % of control
CC(=O)c1ccc(-c2cn(C3CCC(=O)NC3=O)nn2)s1 (stereo not drawn) [compound 8, 3-[4-(5-acetylthiophen-2-yl)-1H-1,2,3-triazol-1-yl]piperidine-2,6-dione]	64%	99%	94%	97 % of control
O=C1CCC(n2cc(-c3cscc3OCc3ccncc3)nn2)C(=O)N1 (stereo not drawn) [compound 33, 3-{4-[4-(pyridin-4-ylmethoxy)thiophen-3-yl]-1H-1,2,3-triazol-1-yl}piperidine-2,6-dione]	100%	27%	38%	78 % of control
CCCCOc1cscc1-c1cn(C2CCC(=O)NC2=O)nn1 (stereo not drawn) [compound 25, 3-[4-(4-butoxythiophen-3-yl)-1H-1,2,3-triazol-1-yl]piperidine-2,6-dione]	49%	57%	73%	118 % of control
